Data reported in patent US20240408169A1 (priority 2023, published 2024).
*1 amine or outer side, *2 acyl side, *3 side chain or, on linkers, in order; H or OH if unused. Where a SMILES comes first, the peptide text is derived from it. Bridges are numbered along the chain shown (N, C = ends). [ ]: non-standard residue; d: D form. The star is where a group is joined. X205 = CC(C)C(=O)N1[C@@H]2COC[C@H]1C=C(c1ccc(F)cc1C[C@@H](C(=O)[*:2])N(C)[*:1])C2; NMePhe(2-(4-MorPh),5-Cl) = CN[C@@H](Cc1cc(Cl)ccc1-c1ccc(N2CCOCC2)cc1)C(=O)O; X157 = CN([C@@H](Cc1cc(Cl)ccc1-c1ccc(S(=O)(=O)N2CCOCC2)cc1)C(=O)[*:2])[*:1]; X202 = CN([C@@H](Cc1cc(Cl)ccc1-c1ccc(N2CCN(CC(F)F)CC2)cc1)C(=O)[*:2])[*:1]; X198 = COC[C@H]1COCCN1c1ccc(-c2ccc(Cl)cc2C[C@@H](C(=O)[*:2])N(C)[*:1])cc1; X185 = CN([C@@H](Cc1cc(Cl)ccc1-c1ccc(N2CCOC(C)(C)C2)cc1)C(=O)[*:2])[*:1]; X165 = CN([C@@H](Cc1cc(Cl)ccc1-c1ccc(N2CCOCC2)c(Cl)c1)C(=O)[*:2])[*:1]; X149 = CN([C@@H](Cc1cc(Cl)ccc1-c1ccnc(N2CCOCC2)c1F)C(=O)[*:2])[*:1]; X175 = Cc1cc(-c2ccc(Cl)cc2C[C@@H](C(=O)[*:2])N(C)[*:1])ccc1N1CCOCC1; X136 = CN1CCOc2cc(-c3ccc(Cl)cc3C[C@@H](C(=O)[*:2])N(C)[*:1])ccc21; X87 = CN([C@@H](Cc1cc(F)ccc1-c1ccc(N2CCOCC2)cc1)C(=O)[*:2])[*:1]; NMehhhLys(Me) = CN([C@@H](CCCCCCCN(C)[*:3])C(=O)[*:2])[*:1]; X206 = CN([C@@H](Cc1cc(Cl)cnc1Cc1cnn(C)c1)C(=O)[*:2])[*:1]; X22 = CN([C@@H](Cc1cc(Cl)ccc1-c1cnn(C)c1)C(=O)[*:2])[*:1]; NMe(hhhLys) = CN([C@@H](CCCCCCCN[*:3])C(=O)[*:2])[*:1]; Oxane2carbonyl(2R-CF3) = O=C([C@@]1(C(F)(F)F)CCCCO1)*; cBuCO(3,3-F2-1-CF3) = O=C(C1(C(F)(F)F)CC(F)(F)C1)*; X133 = Cc1ncc(Cl)cc1C[C@@H](C(=O)[*:2])N(C)[*:1]; Pro(trans-4-F) = O=C(O)[C@@H]1C[C@@H](F)CN1; Pro(4,4-F2) = O=C(O)[C@@H]1CC(F)(F)CN1; X201 = O=C(C1(C(F)F)CC(F)(F)C1)*; Gly(cPr) = N[C@H](C(=O)O)C1CC1

Experiments:
CyclinB1/CDK1 = target: T1, CyclinB1/CDK1 (Homo sapiens, UniProt P14635); assay: Fluorescence Polarization (FP) competitive binding assay, Cyclin B1/Cdk1; conditions: 10 nM Cyclin B1/Cdk1, 2 nM FAM probe; average of 2-3 independent experiments; read-out: Cyclin B FP IC50;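 note: fluorescence polarization read after equilibration at room temperature, with IC50 taken from serially diluted dose-response curves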
T1 construct: purchased Eurofins, discovery 14-450

NCI-H1048 cells = assay: MTT proliferation assay, NCI-H1048; assay type: cell-based; conditions: 5 days compound exposure, 1:3 serial dilution starting at 10 μM;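 note: Dose-response in 96-well plates over 8 or 10 concentration points, with exposure spanning 3-4 cell doublings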
OVCAR3 cells = assay: MTT proliferation assay, OVCAR3; assay type: cell-based; conditions: 5 days compound exposure, 1:3 serial dilution starting at 10 μM;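 note: compound given as an 8- or 10-point series, one day after plating, with exposure covering roughly 3-4 cell doublings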
CyclinE1/CDK2 = target: T2, CyclinE1/CDK2 (Homo sapiens, UniProt P24864); assay: Fluorescence Polarization (FP) competitive binding assay, Cyclin E1/Cdk2; conditions: 10 nM Cyclin E1/Cdk2, 2 nM FAM probe; average of 2-3 independent experiments; read-out: Cyclin E FP IC50;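 note: readings taken after two-hour equilibration at room temperature in HEPES buffer with NaCl, DTT, NP-40 and BSA, IC50 fitted from eight-concentration serial dilution series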
T2 construct: purchased Eurofins, discovery 14-475

CyclinA2/CDK2 = target: T3, CyclinA2/CDK2 (Homo sapiens, UniProt P20248); assay: Fluorescence Polarization (FP) competitive binding assay, Cyclin A2/Cdk2; conditions: 8 nM Cyclin A2/Cdk2, 2 nM FAM probe; average of 2-3 independent experiments; read-out: Cyclin A FP IC50;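 note: plates equilibrated two hours at room temperature before polarization reading, IC50 fitted from eight-concentration compound titration curves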
T3 construct: purchased CRELUX Protein Services

| SMILES | IC50 (CyclinB1/CDK1) [nM] | GI50 (NCI-H1048 cells) [nM] | GI50 (OVCAR3 cells) [nM] | IC50 (CyclinE1/CDK2) [nM] | IC50 (CyclinA2/CDK2) [nM] |
| --- | --- | --- | --- | --- | --- |
| CC(C)C[C@@H]1NC(=O)[C@@H](N(C)C(=O)[C@@H](NC(=O)[C@@H]2C[C@@H](F)CN2C(=O)C2(C(F)(F)F)CC(F)(F)C2)C2CC2)CCCCCCCN(C)C(=O)[C@H](Cc2cc(F)ccc2C2=C[C@@H]3COC[C@H](C2)N3C(=O)C(C)C)N(C)C1=O [Example 329] ({cBuCO(3,3-F2-1-CF3)}-[Pro(trans-4-F)][Gly(cPr)][NMehhhLys(Me)]L[X205]; lactam 3-C) | 20 | 10 | 10 | 250 | 20 |
| Cc1ncc(Cl)cc1C[C@H]1C(=O)NCCCCCCC[C@H](N(C)C(=O)[C@@H](NC(=O)[C@@H]2C[C@@H](F)CN2C(=O)C2(C(F)(F)F)CC(F)(F)C2)C2CC2)C(=O)N[C@@H](CC(C)C)C(=O)N1C [Example 331, (2S,4R)—N—((S)-2-(((3S,6S,9S)-3-((5-chloro-2-methylpyridin-3-yl)methyl)-6-isobutyl-4-methyl-2,5,8-trioxo-1,4,7-triazacyclohexadecan-9-yl)(methyl)amino)-1-cyclopropyl-2-oxoethyl)-1-(3,3-difluoro-1-(trifluoromethyl)cyclobutane-1-carbonyl)-4-fluoropyrrolidine-2-carboxamide] ({cBuCO(3,3-F2-1-CF3)}-[Pro(trans-4-F)][Gly(cPr)][NMe(hhhLys)]L[X133]; lactam 3-C) | 20 | 60 | 50 | 1140 | 170 |
| CC(C)C[C@@H]1NC(=O)[C@@H](N(C)C(=O)[C@@H](NC(=O)[C@@H]2C[C@@H](F)CN2C(=O)[C@@]2(C(F)(F)F)CCCCO2)C2CC2)CCCCCCCN(C)C(=O)[C@H](Cc2cc(Cl)cnc2Cc2cnn(C)c2)N(C)C1=O [Example 332] ({Oxane2carbonyl(2R-CF3)}-[Pro(trans-4-F)][Gly(cPr)][NMehhhLys(Me)]L[X206]; lactam 3-C) | 20 | 10 | 10 | 100 | 20 |
| CC(C)C[C@@H]1NC(=O)[C@@H](N(C)C(=O)[C@@H](NC(=O)[C@@H]2C[C@@H](F)CN2C(=O)C2(C(F)(F)F)CC(F)(F)C2)C2CC2)CCCCCCCNC(=O)[C@H](Cc2cc(Cl)ccc2-c2ccc(N3CCOCC3)cc2)N(C)C1=O [Example 333] ({cBuCO(3,3-F2-1-CF3)}-[Pro(trans-4-F)][Gly(cPr)][NMe(hhhLys)]L[NMePhe(2-(4-MorPh),5-Cl)]; lactam 3-C) | 20 | 10 | 10 | 1150 | 20 |
| CC(C)C[C@@H]1NC(=O)[C@@H](N(C)C(=O)[C@@H](NC(=O)[C@@H]2C[C@@H](F)CN2C(=O)C2(C(F)(F)F)CC(F)(F)C2)C2CC2)CCCCCCCNC(=O)[C@H](Cc2cc(F)ccc2-c2ccc(N3CCOCC3)cc2)N(C)C1=O [Example 334] ({cBuCO(3,3-F2-1-CF3)}-[Pro(trans-4-F)][Gly(cPr)][NMe(hhhLys)]L[X87]; lactam 3-C) | 20 | 10 | 10 | 190 | 20 |
| CC(C)C[C@@H]1NC(=O)[C@@H](N(C)C(=O)[C@@H](NC(=O)[C@@H]2C[C@@H](F)CN2C(=O)C2(C(F)(F)F)CC(F)(F)C2)C2CC2)CCCCCCCN(C)C(=O)[C@H](Cc2cc(Cl)ccc2-c2ccc3c(c2)OCCN3C)N(C)C1=O [Example 342] ({cBuCO(3,3-F2-1-CF3)}-[Pro(trans-4-F)][Gly(cPr)][NMehhhLys(Me)]L[X136]; lactam 3-C) | 20 | 10 | 10 | 590 | 20 |
| CC(C)C[C@@H]1NC(=O)[C@@H](N(C)C(=O)[C@@H](NC(=O)[C@@H]2CC(F)(F)CN2C(=O)C2(C(F)(F)F)CC(F)(F)C2)C2CC2)CCCCCCCN(C)C(=O)[C@H](Cc2cc(Cl)ccc2-c2cnn(C)c2)N(C)C1=O [Example 343] ({cBuCO(3,3-F2-1-CF3)}-[Pro(4,4-F2)][Gly(cPr)][NMehhhLys(Me)]L[X22]; lactam 3-C) | 20 | 10 | 10 | 670 | 20 |
| Cc1cc(-c2ccc(Cl)cc2C[C@H]2C(=O)N(C)CCCCCCC[C@H](N(C)C(=O)[C@@H](NC(=O)[C@@H]3C[C@@H](F)CN3C(=O)C3(C(F)(F)F)CC(F)(F)C3)C3CC3)C(=O)N[C@@H](CC(C)C)C(=O)N2C)ccc1N1CCOCC1 [Example 344] ({cBuCO(3,3-F2-1-CF3)}-[Pro(trans-4-F)][Gly(cPr)][NMehhhLys(Me)]L[X175]; lactam 3-C) | 20 | 10 | 20 | 1270 | 20 |
| CC(C)C[C@@H]1NC(=O)[C@@H](N(C)C(=O)[C@@H](NC(=O)[C@@H]2C[C@@H](F)CN2C(=O)C2(C(F)(F)F)CC(F)(F)C2)C2CC2)CCCCCCCN(C)C(=O)[C@H](Cc2cc(Cl)ccc2-c2ccc(N3CCOCC3)c(Cl)c2)N(C)C1=O [Example 345] ({cBuCO(3,3-F2-1-CF3)}-[Pro(trans-4-F)][Gly(cPr)][NMehhhLys(Me)]L[X165]; lactam 3-C) | 20 | 20 | 40 | 3050 | 30 |
| CC(C)C[C@@H]1NC(=O)[C@@H](N(C)C(=O)[C@@H](NC(=O)[C@@H]2C[C@@H](F)CN2C(=O)C2(C(F)(F)F)CC(F)(F)C2)C2CC2)CCCCCCCN(C)C(=O)[C@H](Cc2cc(Cl)ccc2-c2ccnc(N3CCOCC3)c2F)N(C)C1=O [Example 349] ({cBuCO(3,3-F2-1-CF3)}-[Pro(trans-4-F)][Gly(cPr)][NMehhhLys(Me)]L[X149]; lactam 3-C) | 20 | 10 | 10 | 230 | 20 |
| CC(C)C[C@@H]1NC(=O)[C@@H](N(C)C(=O)[C@@H](NC(=O)[C@@H]2C[C@@H](F)CN2C(=O)C2(C(F)F)CC(F)(F)C2)C2CC2)CCCCCCCN(C)C(=O)[C@H](Cc2cc(Cl)ccc2-c2ccc(N3CCOCC3)cc2)N(C)C1=O [Example 350] (X201-[Pro(trans-4-F)][Gly(cPr)][NMehhhLys(Me)]L[NMePhe(2-(4-MorPh),5-Cl)]; lactam 3-C) | 20 | 10 | 10 | 880 | 20 |
| CC(C)C[C@@H]1NC(=O)[C@@H](N(C)C(=O)[C@@H](NC(=O)[C@@H]2C[C@@H](F)CN2C(=O)C2(C(F)(F)F)CC(F)(F)C2)C2CC2)CCCCCCCN(C)C(=O)[C@H](Cc2cc(Cl)ccc2-c2ccc(N3CCN(CC(F)F)CC3)cc2)N(C)C1=O [Example 352] ({cBuCO(3,3-F2-1-CF3)}-[Pro(trans-4-F)][Gly(cPr)][NMehhhLys(Me)]L[X202]; lactam 3-C) | 20 | 10 | 10 | 510 | 20 |
| CC(C)C[C@@H]1NC(=O)[C@@H](N(C)C(=O)[C@@H](NC(=O)[C@@H]2C[C@@H](F)CN2C(=O)C2(C(F)(F)F)CC(F)(F)C2)C2CC2)CCCCCCCN(C)C(=O)[C@H](Cc2cc(Cl)ccc2-c2ccc(S(=O)(=O)N3CCOCC3)cc2)N(C)C1=O [Example 354] ({cBuCO(3,3-F2-1-CF3)}-[Pro(trans-4-F)][Gly(cPr)][NMehhhLys(Me)]L[X157]; lactam 3-C) | 20 | 10 | 20 | 1340 | 30 |
| CC(C)C[C@@H]1NC(=O)[C@@H](N(C)C(=O)[C@@H](NC(=O)[C@@H]2C[C@@H](F)CN2C(=O)C2(C(F)(F)F)CC(F)(F)C2)C2CC2)CCCCCCCN(C)C(=O)[C@H](Cc2cc(Cl)ccc2-c2ccc(N3CCOC(C)(C)C3)cc2)N(C)C1=O [Example 366] ({cBuCO(3,3-F2-1-CF3)}-[Pro(trans-4-F)][Gly(cPr)][NMehhhLys(Me)]L[X185]; lactam 3-C) | 20 | 20 | 20 | 1050 | 20 |
| COC[C@H]1COCCN1c1ccc(-c2ccc(Cl)cc2C[C@H]2C(=O)N(C)CCCCCCC[C@H](N(C)C(=O)[C@@H](NC(=O)[C@@H]3C[C@@H](F)CN3C(=O)C3(C(F)(F)F)CC(F)(F)C3)C3CC3)C(=O)N[C@@H](CC(C)C)C(=O)N2C)cc1 [Example 373] ({cBuCO(3,3-F2-1-CF3)}-[Pro(trans-4-F)][Gly(cPr)][NMehhhLys(Me)]L[X198]; lactam 3-C) | 20 | 10 | 10 | 480 | 20 |
